{"source": "patent US8394641B2", "about": "“Method of hydrolyzing an enzymatic substrate” (Advanced Liquid Logic Inc., priority 2009, dated 2013)", "key": {"[1]": {"biological_target": "T1, α-galactosidase (Homo sapiens, UniProt P06280)", "T1 construct": "DBS extracts were prepared from quality control (QC) dried blood spot samples; tissue CDC, Atlanta Ga; host or cells: dried blood spot extracts (pooled cord blood / leukoreduced red cells plus serum)", "T1 sequence (P06280 32-429)": "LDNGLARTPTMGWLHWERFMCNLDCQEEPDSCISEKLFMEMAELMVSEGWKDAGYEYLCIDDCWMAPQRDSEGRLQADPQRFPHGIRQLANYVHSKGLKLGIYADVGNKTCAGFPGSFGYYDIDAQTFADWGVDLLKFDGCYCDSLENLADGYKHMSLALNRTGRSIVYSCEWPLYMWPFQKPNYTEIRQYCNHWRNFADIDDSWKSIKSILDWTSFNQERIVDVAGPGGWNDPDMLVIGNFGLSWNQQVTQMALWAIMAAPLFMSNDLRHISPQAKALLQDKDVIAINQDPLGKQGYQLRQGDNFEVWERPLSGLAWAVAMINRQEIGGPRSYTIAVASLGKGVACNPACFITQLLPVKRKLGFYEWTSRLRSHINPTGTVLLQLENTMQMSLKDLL", "test": "Fabry assay on bench, substrate hydrolysis with cyclodextrins, QC DBS extracts", "type": "biochemical", "details": "for effect on hydrolysis of the 4-MU substrate in the Fabry assay: 10, 30, 100 mM tested, effect at 10 mM", "protocol": "(§1) To evaluate the efficacy of cyclodextrins in enhancing the hydrolysis of enzymatic substrates (4-MU substrates) used in NBS assays, DBS extracts were prepared from quality control (QC) dried blood spot samples (i.e., base pool (BP), low (L), medium (M) and high (H) activity samples). The QC samples were obtained from CDC, Atlanta Ga. The base pool (BP) QC sample was prepared from a pool of leukoreduced human red blood cells that was adjusted with serum to a hematocrit of 50%. The High (H) activity QC sample was prepared from pooled cord blood that was adjusted with serum to a hematocrit of 50%. The medium (M) activity QC sample was prepared by using 50% base pool (BP) and 50% high (H) activity sample. The low (L) activity QC sample was prepared by using 95% base pool (BP) and 5% high (H) activity sample. The BP sample is used as a control for hydrolysis non-specific to white blood cell lysosomal enzymes. The DBS extracts were analyzed using on-bench assay protocols for Fabry, Gaucher, Krabbe, and Pompe diseases. For each assay, on-chip reagent formulations were scaled up to bench volumes. Hydroxypropyl-β-cyclodextrin or methyl-β-cyclodextrin reagent stocks (300 mM) were prepared in appropriate assay buffers. For each reaction, 10 μL of the appropriate substrate was mixed with 10 μL of DBS extract. After an incubation period (20 hrs at 37° C.), 50 μL of stop buffer (0.2 M NaCO3, pH 10.1) was added to the reaction. Fluorescence was read at 360/460 nm at a gain of 75. For each assay, QC samples (BP, L, M and H) were analyzed in duplicate.\nFIGS. 20A and 20B show bar graphs 2000 and 2050 of the effect of hydroxypropyl-β-cyclodextrin and methyl-β-cyclodextrin, respectively, on substrate hydrolysis in a Fabry assay. The 4-MU substrate in the Fabry assay was β-D-galactopyranoside. The concentrations of β-cyclodextrins in the reaction mixture (substrate+DBS extract) were 10 mM, 30 mM and 100 mM.\nTo further evaluate the efficacy of lower concentrations of cyclodextrins in enhancing the hydrolysis of 4-MU substrates, Fabry and Gaucher assays were repeated using cyclodextrins concentrations ranging from 1 mM to 25 mM. FIGS. 22A and 22B show bar graphs 2200 and 2250, respectively, of the effect of lower concentrations of hydroxypropyl-β-cyclodextrin and methyl-β-cyclodextrin, respectively, on substrate hydrolysis in a Fabry assay. The 4-MU substrate in the Fabry assay was β-D-galactopyranoside. The concentrations of β-cyclodextrins in the reaction mixture (substrate+DBS extract) were 1, 5, 10, 15, 20, and 25 mM. […] The preferred concentration of methyl-β-cyclodextrin is from about 1 mM to about 20 mM, or from about 5 mM to about 15 mM, or from about 7 mM to about 13 mM, or from about 9 mM to about 11 mM, or from about 9.5 mM to about 11.5 mM."}, "[2]": {"biological_target": "T2, acid β-D-glucosidase (Homo sapiens, UniProt P04062)", "T2 sequence (P04062 40-536)": "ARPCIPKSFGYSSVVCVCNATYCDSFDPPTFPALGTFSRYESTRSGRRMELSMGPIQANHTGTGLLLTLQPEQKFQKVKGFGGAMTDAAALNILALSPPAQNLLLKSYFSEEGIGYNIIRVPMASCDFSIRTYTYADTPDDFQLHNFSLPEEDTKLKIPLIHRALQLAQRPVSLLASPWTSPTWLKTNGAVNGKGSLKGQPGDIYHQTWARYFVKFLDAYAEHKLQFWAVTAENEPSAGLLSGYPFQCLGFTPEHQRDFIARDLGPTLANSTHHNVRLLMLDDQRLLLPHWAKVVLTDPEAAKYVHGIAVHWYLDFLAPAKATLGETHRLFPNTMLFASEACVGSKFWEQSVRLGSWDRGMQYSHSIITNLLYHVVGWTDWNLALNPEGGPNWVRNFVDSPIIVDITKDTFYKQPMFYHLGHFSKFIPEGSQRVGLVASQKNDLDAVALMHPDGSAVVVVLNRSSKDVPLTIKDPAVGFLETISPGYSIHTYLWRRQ", "test": "Gaucher assay on bench, substrate hydrolysis with cyclodextrins, QC DBS extracts", "type": "biochemical", "parameters": "DBS extracts were prepared from quality control (QC) dried blood spot samples; tissue CDC, Atlanta Ga; host or cells: dried blood spot extracts (pooled cord blood / leukoreduced red cells plus serum)", "details": "for effect on fluorescence signal in the Gaucher assay, lower concentrations: 1, 5, 10, 15, 20, 25 mM, one experiment; for effect on hydrolysis of the 4-MU substrate in the Gaucher assay: 10, 30, 100 mM tested, effect at 10 mM, 20 hrs at 37° C.", "protocol": "as §1\nFIGS. 21A and 21B show bar graphs 2100 and 2150 of the effect of hydroxypropyl-β-cyclodextrin and methyl-β-cyclodextrin, respectively, on substrate hydrolysis in a Gaucher assay. The 4-MU substrate in the Gaucher assay was β-D-glucopyranoside. The concentrations of β-cyclodextrins in the reaction mixture (substrate+DBS extract) were 10 mM, 30 mM, and 100 mM.\nFIGS. 23A and 23B show bar graphs 2300 and 2350, respectively, of an experimental result of the effect of lower concentrations of hydroxypropyl-β-cyclodextrin and methyl-β-cyclodextrin, respectively, on substrate hydrolysis in a Gaucher assay. The 4-MU substrate in the Gaucher assay was β-D-glucopyranoside. The concentrations of β-cyclodextrins in the reaction mixture (substrate+DBS extract) were 1, 5, 10, 15, 20, and 25 mM. […] The β-cyclodextrin used may be hydroxypropyl-β-cyclodextrin at a concentration from about 5 mM to about 15 mM, or from about 7 mM to about 13 mM, or from about 9 mM to about 11 mM, or from about 9.5 mM to about 11.5 mM."}}}
{"substance": "methyl-β-cyclodextrin", "values": [{"measurement": "increase of the QC-H signal in the Fabry assay", "setting": "[1]; 10 mM, 20 hrs at 37° C.", "value": 37, "unit": "%"}, {"measurement": "effect on hydrolysis of the 4-MU substrate in the Fabry assay", "setting": "[1]; 20 hrs at 37° C.", "value": "increase the hydrolysis"}, {"measurement": "effect on fluorescence signal in the Gaucher assay, lower concentrations", "setting": "[2]", "value": "may affect the fluorescence signal"}, {"measurement": "effect on hydrolysis of the 4-MU substrate in the Gaucher assay", "setting": "[2]", "value": "increase the hydrolysis"}]}
{"substance": "hydroxypropyl-β-cyclodextrin", "values": [{"measurement": "effect on substrate hydrolysis in a Fabry assay, lower concentrations", "setting": "[1]; 1, 5, 10, 15, 20, 25 mM", "value": "less effective"}, {"measurement": "effect on hydrolysis of the 4-MU substrate in the Fabry assay", "setting": "[1]; 20 hrs at 37° C.", "value": "less effective"}, {"measurement": "effect on fluorescence signal in the Gaucher assay, lower concentrations", "setting": "[2]", "value": "may affect the fluorescence signal"}, {"measurement": "effect on hydrolysis of the 4-MU substrate in the Gaucher assay", "setting": "[2]", "value": "increase the hydrolysis"}]}
